Assays:
[1] = biological target: T1, human EP4 receptor (Homo sapiens, UniProt P35408); test: Binding ability to human EP4 receptor ([3H]PGE2 displacement); settings: read-out: pKi EP4 (converted)
T1 construct: expressed in transfected cells
Experimental: (§1) Membranes were prepared from cells stably transfected with human EP receptor cDNA. In brief, cells were cultured to confluency, scraped from culture flasks, and centrifuged (800 g, 8 minutes, 4° C.). Cells were twice washed in ice cold homogenisation buffer containing 10 mMTris-HCl, 1 mM EDTA. 2Na, 250 mM sucrose, 1 mM PMSF, 0.3 mM indomethacin, pH 7.4, homogenised and re-centrifuged as before. The supernatant was stored on ice and pellets re-homogenised and re-spun. Supernatants were pooled and centrifuged at 40000 g, 10 minutes, 4° C. Resultant membrane pellets were stored at −80° C. until use.
(§2) Incubations were performed at suitable temperatures and for suitable times to allow equilibrium to be reached. Non-specific binding was determined in the presence of 10 uM PGE2. Bound and free radiolabel was separated by vacuum manifold filtration using appropriate wash buffers, and bound radiolabel was determined by scintillation counting. Constituents of each of the buffers are included in table 1 below.
(§3) This approach follows that set out in Kenakin, T. P., Pharmacologic analysis of drug receptor interaction. Raven Press, New York, 2nd edition.

[2] = biological target: T2, human EP3 receptor (Homo sapiens, UniProt P43115); test: Binding ability to human EP3 receptor ([3H]PGE2 displacement); settings: membranes from cells stably transfected with human EP receptor cDNA; [3H]PGE2 2.5 nM; Cheng-Prusoff from IC50; read-out: pKi EP3 (converted)
T2 construct: expressed in transfected cells
T2 sequence (P43115 1-390): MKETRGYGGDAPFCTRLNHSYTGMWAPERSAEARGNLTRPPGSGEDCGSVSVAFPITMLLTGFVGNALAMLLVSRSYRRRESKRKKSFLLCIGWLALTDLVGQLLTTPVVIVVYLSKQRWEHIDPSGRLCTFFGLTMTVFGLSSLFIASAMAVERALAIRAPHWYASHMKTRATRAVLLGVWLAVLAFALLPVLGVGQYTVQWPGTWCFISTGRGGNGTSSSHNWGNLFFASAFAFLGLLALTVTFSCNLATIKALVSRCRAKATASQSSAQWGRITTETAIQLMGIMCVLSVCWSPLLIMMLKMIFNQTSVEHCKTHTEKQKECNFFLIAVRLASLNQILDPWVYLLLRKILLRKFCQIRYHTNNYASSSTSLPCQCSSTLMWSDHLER
Experimental: as §1
as §2, with “For assay, membranes expressing human EP4, EP3, EP2 or EP1 receptors were incubated in Millipore (MHVBN45) plates containing assay buffer, radiolabelled [^3H]PGE2 and 0.1 to 10 000 nM concentrations of compounds. Incubations” for “Incubations”
as §3

[3] = biological target: T3, human EP2 receptor (Homo sapiens, UniProt P43116); test: Binding ability to human EP2 receptor ([3H]PGE2 displacement); settings: read-out: pKi EP2 (converted)
T3 construct: expressed in transfected cells
Experimental: as §1
as §2, with “For assay, membranes expressing human EP4, EP3, EP2 or EP1 receptors were incubated in Millipore (MHVBN45) plates containing assay buffer, radiolabelled [^3H]PGE2 and 0.1 to 10 000 nM concentrations of compounds. Incubations” for “Incubations”
as §3

T3 sequence (P43116 whole entry): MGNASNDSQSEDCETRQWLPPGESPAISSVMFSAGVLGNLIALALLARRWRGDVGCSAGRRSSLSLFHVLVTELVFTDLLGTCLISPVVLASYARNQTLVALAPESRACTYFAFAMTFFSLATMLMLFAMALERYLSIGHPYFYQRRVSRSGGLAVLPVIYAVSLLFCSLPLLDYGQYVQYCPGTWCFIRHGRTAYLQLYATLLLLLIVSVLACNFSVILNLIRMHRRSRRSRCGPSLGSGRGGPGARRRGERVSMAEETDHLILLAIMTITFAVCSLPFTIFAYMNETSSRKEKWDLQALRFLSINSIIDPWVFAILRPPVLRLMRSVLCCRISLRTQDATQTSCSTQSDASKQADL
T1 sequence (P35408 whole entry): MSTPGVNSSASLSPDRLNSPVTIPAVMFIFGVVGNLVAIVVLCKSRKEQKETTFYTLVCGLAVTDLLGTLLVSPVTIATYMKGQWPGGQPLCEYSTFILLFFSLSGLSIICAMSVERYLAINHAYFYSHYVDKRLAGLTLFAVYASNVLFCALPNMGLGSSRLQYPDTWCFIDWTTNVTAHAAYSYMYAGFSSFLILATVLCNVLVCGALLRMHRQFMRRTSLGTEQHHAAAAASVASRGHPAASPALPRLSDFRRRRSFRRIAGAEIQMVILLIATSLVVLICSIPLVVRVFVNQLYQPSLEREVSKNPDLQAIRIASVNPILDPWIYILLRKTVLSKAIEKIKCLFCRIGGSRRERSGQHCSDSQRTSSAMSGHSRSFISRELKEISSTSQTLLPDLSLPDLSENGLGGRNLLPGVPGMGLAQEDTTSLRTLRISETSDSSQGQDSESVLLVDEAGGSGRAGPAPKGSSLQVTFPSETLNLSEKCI

| Structure (SMILES) | Ki [1] [nM] | Ki [2] [µM] | Ki [3] [µM] |
| --- | --- | --- | --- |
| O=C(O)c1cc(COc2cccc(-c3ccccc3)c2)c(C(F)(F)F)o1 [Compound 91, 4-(Biphenyl-3-yloxymethyl)-5-trifluoromethyl-furan-2-carboxylic acid] | < 3160 | > 10 | > 10 |
| O=C(O)c1cc(COc2ccc3c(c2)oc2ccccc23)co1 [Compound 81, 4-(Dibenzofuran-3-yloxymethyl)-furan-2-carboxylic acid] | < 3160 | > 10 | > 3.16 |
| O=C(O)c1cc(COc2ccc3oc4ccccc4c3c2)co1 [Compound 78, 4-(Dibenzofuran-2-yloxymethyl)-furan-2-carboxylic acid] | < 10000 | > 10 | > 3.16 |
| Cc1oc(/C=C/C(=O)O)cc1COc1ccc(-c2ccccc2)cc1 [Compound 42, 3-[4-(Biphenyl-4-yloxymethyl)-5-methyl-furan-2-yl]-acrylic acid] | < 100 | > 10 | > 10 |
| Cc1oc(C(=O)O)cc1CNc1ccc(-c2ccc(OC(F)F)cc2)cc1 [Compound 171, 4-(4′-Difluoromethoxy-biphenyl-4-ylaminomethyl)-5-methyl-furan-2-carboxylic acid] | < 316 | > 10 | > 10 |
| COc1ccc(-c2ccc(OCc3cc(CCC(=O)NS(=O)(=O)c4ccccc4)oc3C)cc2)cc1 [Compound 40, N-{3-[4-(4′-Methoxy-biphenyl-4-yloxymethyl)-5-methyl-furan-2-yl]-propionyl}-benzene sulfonamide] | < 100 | > 10 | > 10 |
| N#Cc1ccc(-c2ccc(OCc3cc(C(=O)O)oc3C(F)(F)F)cc2)cc1 [Compound 93, 4-(4′-Cyano-biphenyl-4-yloxymethyl)-5-trifluoromethyl-furan-2-carboxylic acid] | < 3160 | > 10 | > 10 |
| Cc1ccccc1S(=O)(=O)NC(=O)c1cc(CS(=O)(=O)c2ccc(-c3ccc(OC(F)F)cc3)cc2)c(C)o1 [Compound 156a, N-[4-(4′-Difluoromethoxy-biphenyl-4-sulfonylmethyl)-5-methyl-furan-2-carbonyl]-2-methyl-benzenesulfonamide] | < 10000 | > 10 | > 10 |
| CC(=O)c1cccc(-c2ccc(OCc3cc(C(=O)O)oc3C)cc2)c1 [Compound 117, 4-(3′-Acetyl-biphenyl-4-yloxymethyl)-5-methyl-furan-2-carboxylic acid] | < 3160 | > 10 | > 10 |
| COc1ccc(-c2ccc(OCc3cc(C(=O)NS(=O)(=O)c4ccccc4)oc3C)cc2)c(OC)c1 [Compound 141, N-[4-(2′,4′-Dimethoxy-biphenyl-4-yloxymethyl)-5-methyl-furan-2-carbonyl]-benzenesulphonamide] | < 316 | > 10 | > 10 |
| Cc1oc(CCC(=O)NS(=O)(=O)c2ccccc2)cc1COc1ccc(-c2ccccc2)cc1 [Compound 38, N-{3-[4-(Biphenyl-4-yloxymethyl)-5-methyl-furan-2-yl]-propionyl}-benzene sulfonamide] | < 1000 | > 10 | > 3.16 |
| COc1ccc(-c2ccc(NC(=O)c3cc(C(=O)NS(=O)(=O)c4ccccc4)oc3C)cc2)cc1 [Compound 25, 5-Benzenesulfonylaminocarbonyl-2-methyl-furan-3-carboxylic acid (4′-methoxy-biphenyl-4-yl)-amide] | < 316 | > 10 | > 10 |
| Cc1oc(C(=O)O)cc1COc1ccc(-c2cccc(O)c2)cc1 [Compound 112, 4-(3′-Hydroxy-biphenyl-4-yloxymethyl)-5-methyl-furan-2-carboxylic acid] | < 3160 | > 10 | > 10 |
| COc1ccc(-c2ccc(OCc3cc(S(=O)(=O)NC(=O)c4c(C)noc4C)oc3C)cc2)cc1 [Compound 69, 4-(4′-Methoxy-biphenyl-4-yloxymethyl)-5-methyl-furan-2-sulphonic acid (3,5-dimethyl-isoxazole-4-carbonyl)-amide] | < 100 | – | – |
| COc1ccc(-c2ccc(OCc3cc(C(=O)NS(=O)(=O)Cc4ccccc4)oc3C)cc2)cc1 [Compound 6, N-[4-(4′-Methoxy-biphenyl-4-yloxymethyl)-5-methyl-furan-2-carbonyl]-C-phenyl-methanesulfonamide] | – | > 10 | > 10 |
| Cc1oc(C(=O)O)cc1COc1ccc(-c2ccc(OC(F)(F)F)cc2)cc1 [Compound 114, 5-Methyl-4-(4′-trifluoromethoxy-biphenyl-4-yloxymethyl)-furan-2-carboxylic acid] | – | > 10 | > 10 |
| COc1ccc(-c2ccc(OCc3cc(C(=O)NS(=O)(=O)c4ccc(C)cn4)oc3C)cc2)cc1 [Compound 11, 5-Methyl-pyridyl-2-sulfonic acid [4-(4′-methoxy-biphenyl-4-yloxymethyl)-5-methyl-furan-2-carbonyl]-amide] | – | > 10 | > 10 |
| COc1ccc(-c2ccc(OCc3cc(C(=O)NS(=O)(=O)c4ccccc4)oc3C)cc2)nc1 [Compound 132, N-{4-[4-(5-Methoxy-pyridin-2-yl)-phenoxymethyl]-5-methyl-furan-2-carbonyl}-benzenesulphonamide] | – | > 10 | > 10 |
| Cc1oc(C(=O)O)cc1COc1ccc(-c2ccc(Cl)cc2)cc1 [Compound 27, 4-(4′-Chloro-biphenyl-4-yloxymethyl)-5-methyl-furan-2-carboxylic acid] | – | > 10 | > 3.16 |
| CC(=O)c1ccc(-c2ccc(OCc3cc(C(=O)NS(=O)(=O)c4ccccc4)oc3C)cc2)cc1 [Compound 22, N-[4-(4′-Acetyl-biphenyl-4-yloxymethyl)-5-methyl-furan-2-carbonyl]-benzenesulfonamide] | – | > 10 | > 10 |
| COc1ccc(-c2ccc(OCc3cc(C(=O)NS(=O)(=O)c4cccs4)oc3C)cc2)cc1 [Compound 10, Thiophene-2-sulfonic acid [4-(4′-methoxy-biphenyl-4-yloxymethyl)-5-methyl-furan-2-carbonyl]-amide] | – | > 10 | > 3.16 |
| O=C(O)c1cc(COc2ccc(-c3ccccc3)cc2)co1 [Compound 77, 4-(Biphenyl-4-yloxymethyl)-furan-2-carboxylic acid] | – | > 10 | > 10 |
| O=C(O)c1cc(COc2ccc(-c3ccccc3)cc2)c(C(F)(F)F)o1 [Compound 90, 4-(Biphenyl-4-yloxymethyl)-5-trifluoromethyl-furan-2-carboxylic acid] | – | > 10 | > 10 |
| Cc1oc(C(=O)NS(=O)(=O)c2ccccc2)cc1COc1ccc(-c2ccc(OC(F)F)cc2)cc1 [Compound 130, N-[4-(4′-Difluoromethoxy-biphenyl-4-yloxymethyl)-5-methyl-furan-2-carbonyl]-benzenesulphonamide] | – | > 10 | > 3.16 |
| CCCS(=O)(=O)NC(=O)c1cc(COc2ccc(-c3ccc(OC)cc3)cc2)c(C)o1 [Compound 8, Propane-1-sulfonic acid [4-(4′-methoxy-biphenyl-4-yloxymethyl)-5-methyl-furan-2-carbonyl]-amide] | – | > 10 | > 10 |
| COc1ccc(-c2ccc(OCc3cc(C(=O)NS(=O)(=O)c4ccc(O)cc4)oc3C)cc2)cc1 [Compound 13, 4-Hydroxy-N-[4-(4′-methoxy-biphenyl-4-yloxymethyl)-5-methyl-furan-2-carbonyl]-benzenesulfonamide] | – | > 10 | > 10 |
| Cc1oc(C(=O)O)cc1COc1ccc(-c2ccc(CO)cc2)cc1 [Compound 110, 4-(4′-Hydroxymethyl-biphenyl-4-yloxymethyl)-5-methyl-furan-2-carboxylic acid] | – | > 10 | > 10 |
| Cc1oc(C(=O)O)cc1CCOc1ccc(-c2ccccc2)cc1 [Compound 72, 4-[2-(Biphenyl-4-yloxy)-ethyl]-5-methyl-furan-2-carboxylic acid] | – | > 10 | > 10 |
| Cc1oc(C(=O)O)cc1COc1ccc(-c2ccc3c(c2)OCO3)cc1 [Compound 28, 4-(4-Benzo[1,3]dioxol-5-yl-phenoxymethyl)-5-methyl-furan-2-carboxylic acid] | – | > 10 | > 10 |
